Consider 10 compounds from US11780830B2, “Triazolone derivatives or salts thereof and pharmaceutical compositions comprising the same” (YUHAN CORPORATION, priority 2018, dated 2023).

Structures are written as SMILES. Structures can show the parent of a compound that is named as a salt. Where only a bound is given, the exact number is not on record here.

What is called IC50 is the concentration that inhibits the measured activity by half.

What all share (format): biochemical
The target of one experiment is T1, recombinant human VAP-1 (Homo sapiens, UniProt Q16853).
T1 construct: purchased R&D systems
T1 sequence (Q16853 1-763): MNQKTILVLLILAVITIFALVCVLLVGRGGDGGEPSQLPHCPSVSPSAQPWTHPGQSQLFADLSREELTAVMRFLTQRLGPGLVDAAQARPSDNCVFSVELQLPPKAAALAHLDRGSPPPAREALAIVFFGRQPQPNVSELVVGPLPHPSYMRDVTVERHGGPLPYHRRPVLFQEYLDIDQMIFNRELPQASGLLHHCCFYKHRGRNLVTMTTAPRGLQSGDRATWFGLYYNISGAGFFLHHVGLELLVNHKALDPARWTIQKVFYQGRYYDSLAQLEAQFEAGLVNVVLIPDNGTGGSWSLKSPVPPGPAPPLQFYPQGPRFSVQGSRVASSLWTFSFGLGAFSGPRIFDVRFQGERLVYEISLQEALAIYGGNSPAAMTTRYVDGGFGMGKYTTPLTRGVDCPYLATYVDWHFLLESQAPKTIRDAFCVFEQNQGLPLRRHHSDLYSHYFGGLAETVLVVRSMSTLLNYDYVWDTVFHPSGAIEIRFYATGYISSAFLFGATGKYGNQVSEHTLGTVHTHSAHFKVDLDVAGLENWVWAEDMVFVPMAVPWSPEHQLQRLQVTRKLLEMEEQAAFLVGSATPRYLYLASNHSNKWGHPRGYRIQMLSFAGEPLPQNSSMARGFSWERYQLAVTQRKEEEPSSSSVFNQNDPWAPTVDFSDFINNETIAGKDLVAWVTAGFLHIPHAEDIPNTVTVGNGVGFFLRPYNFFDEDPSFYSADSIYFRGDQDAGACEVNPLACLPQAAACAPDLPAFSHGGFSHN
The experiment can be described thus: Activity on recombinant human VAP-1, HRP-coupled Amplex Red hydrogen peroxide assay. Particulars: substrate 1 mM benzylamine; compound incubated with enzyme at 37° C. for 30 minutes; pH 7.4; read-out: Inhibitory Activity (IC50, nM) human VAP-1. In a few lines:
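Enzyme in 50 mM sodium phosphate pH 7.4 preincubated with compound 30 min at 37 °C, then 1 mM benzylamine, 200 µM Amplex Red and 1 U/mL HRP added. H2O2-derived resorufin fluorescence (ex 544/em 590 nm) followed over 1–2 h; signal-rate decrease versus DMSO control, 8-point curve, four-parameter logistic IC50.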

For experiment [1], the target named is T2, recombinant human MAO-A (monoamine oxidase-A) (Homo sapiens, UniProt P21397).
T2 construct: purchased Sigma-Aldrich
T2 sequence (P21397 1-527): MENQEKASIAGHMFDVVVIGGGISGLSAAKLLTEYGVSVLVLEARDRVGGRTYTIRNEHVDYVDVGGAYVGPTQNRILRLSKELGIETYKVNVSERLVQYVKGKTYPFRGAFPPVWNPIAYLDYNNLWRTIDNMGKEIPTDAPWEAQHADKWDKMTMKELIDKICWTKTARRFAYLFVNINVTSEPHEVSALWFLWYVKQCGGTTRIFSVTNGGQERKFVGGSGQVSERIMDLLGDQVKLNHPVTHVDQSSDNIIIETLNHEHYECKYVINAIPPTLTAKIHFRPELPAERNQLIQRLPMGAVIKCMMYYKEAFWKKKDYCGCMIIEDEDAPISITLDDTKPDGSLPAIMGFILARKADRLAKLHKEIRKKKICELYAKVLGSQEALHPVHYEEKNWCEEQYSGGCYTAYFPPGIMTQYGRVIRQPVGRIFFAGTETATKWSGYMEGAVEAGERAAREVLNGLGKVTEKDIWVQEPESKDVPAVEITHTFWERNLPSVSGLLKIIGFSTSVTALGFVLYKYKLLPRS
The experiment can be described thus: Activity on recombinant human MAO-A, method similar to the VAP-1 assay. The settings on record: substrate 0.5 mM tyramine; read-out: Inhibitory Activity (IC50, nM) MAO-A. In outline:
(§1)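 Enzyme preincubated with compound 30 min at 37 °C in 50 mM sodium phosphate pH 7.4, final DMSO below 1%. Substrate was 0.5 mM tyramine for MAO-A and 1 mM benzylamine for MAO-B, with 200 uM Amplex Red and 1 U/mL HRP. H2O2-coupled resorufin fluorescence (ex 544/em 590) followed over 1–2 h; 8-point 4-parameter IC50.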

Experiment [2] deals with T3, recombinant human MAO-B (monoamine oxidase-B) (Homo sapiens, UniProt P27338).
T3 construct: purchased Sigma-Aldrich
T3 sequence (P27338 1-520): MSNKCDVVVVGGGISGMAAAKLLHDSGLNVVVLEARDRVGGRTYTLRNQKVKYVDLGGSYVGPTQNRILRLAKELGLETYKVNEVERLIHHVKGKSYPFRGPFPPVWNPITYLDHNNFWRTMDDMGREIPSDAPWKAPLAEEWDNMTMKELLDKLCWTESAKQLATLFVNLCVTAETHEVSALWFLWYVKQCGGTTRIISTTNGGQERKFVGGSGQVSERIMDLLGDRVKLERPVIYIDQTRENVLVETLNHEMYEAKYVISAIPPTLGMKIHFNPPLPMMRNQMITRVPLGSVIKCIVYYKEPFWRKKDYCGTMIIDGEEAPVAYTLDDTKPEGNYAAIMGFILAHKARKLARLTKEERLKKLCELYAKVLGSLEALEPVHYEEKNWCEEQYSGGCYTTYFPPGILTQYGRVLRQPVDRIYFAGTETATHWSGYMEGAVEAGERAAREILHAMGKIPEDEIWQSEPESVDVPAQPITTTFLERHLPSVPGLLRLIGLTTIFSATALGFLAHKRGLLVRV
The experiment can be described thus: Activity on recombinant human MAO-B, method similar to the VAP-1 assay. Particulars: substrate 1 mM benzylamine; read-out: Inhibitory Activity (IC50, nM) MAO-B. In a few lines: as §1

Experiment [3] addresses T4, recombinant human DAO (diamine oxidase) (Homo sapiens, UniProt P19801).
T4 construct: purchased R&D systems
T4 sequence (P19801 20-751): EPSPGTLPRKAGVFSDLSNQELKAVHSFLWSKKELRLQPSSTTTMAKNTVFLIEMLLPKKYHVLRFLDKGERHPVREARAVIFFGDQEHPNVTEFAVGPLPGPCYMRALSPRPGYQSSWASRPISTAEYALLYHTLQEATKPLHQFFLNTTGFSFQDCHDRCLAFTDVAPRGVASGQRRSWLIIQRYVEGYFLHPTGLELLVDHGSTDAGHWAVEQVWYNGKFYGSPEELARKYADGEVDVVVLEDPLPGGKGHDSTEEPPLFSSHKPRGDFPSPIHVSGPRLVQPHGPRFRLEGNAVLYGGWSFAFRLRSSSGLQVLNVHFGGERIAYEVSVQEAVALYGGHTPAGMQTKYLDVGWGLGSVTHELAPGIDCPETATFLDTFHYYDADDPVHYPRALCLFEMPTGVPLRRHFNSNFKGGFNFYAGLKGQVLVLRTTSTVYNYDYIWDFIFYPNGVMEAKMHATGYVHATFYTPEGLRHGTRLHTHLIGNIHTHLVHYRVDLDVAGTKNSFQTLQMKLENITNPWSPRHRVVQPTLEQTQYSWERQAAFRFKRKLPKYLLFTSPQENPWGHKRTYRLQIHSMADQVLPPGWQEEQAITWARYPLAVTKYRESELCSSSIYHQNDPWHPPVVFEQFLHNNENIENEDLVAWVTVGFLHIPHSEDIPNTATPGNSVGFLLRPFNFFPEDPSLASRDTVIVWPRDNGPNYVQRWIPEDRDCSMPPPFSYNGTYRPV
In words: Activity on recombinant human DAO, method similar to the VAP-1 assay. The settings on record: substrate 1 mM putrescine; read-out: Inhibitory Activity (IC50, nM) DAO. In a few lines:
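Inhibition of recombinant human diamine oxidase (DAO, R&D systems) was assessed by the same approach as the VAP-1 assay, using 1 mM putrescine as substrate. Hydrogen peroxide formed was detected through an HRP-coupled Amplex Red reaction yielding fluorescent resorufin, read at 544 nm excitation and 590 nm emission. IC50 values came from four-parameter logistic fitting in GraphPad Prism.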

Consider `NC/C(=C\F)Cn1ncn(Cc2ccc(-c3ccc(N4CCCC4=O)cc3)s2)c1=O` [Example 21, 2-[(2E)-2-(aminomethyl)-3-fluoroprop-2-en-1-yl]-4-(5-[4-(2-oxopyrrolidin-1-yl)phenyl]thiophen-2-ylmethyl)-2,4-dihydro-3H-1,2,4-triazol-3-one hydrochloride], for which the IC50 at recombinant human VAP-1 was 2 nM; in experiment [1] it was greater than 100000 nM; in experiment [2] it was 3000 nM; in experiment [3], 1300 nM.

`CC(C)Oc1ccc(-c2ccc(Cn3cnn(C/C(=C/F)CN)c3=O)s2)cn1` [Example 185, 2-[(2E)-2-(aminomethyl)-3-fluoroprop-2-en-1-yl]-4-({5-[6-(propan-2-yloxy)pyridin-3-yl]thiophen-2-yl}methyl)-2,4-dihydro-3H-1,2,4-triazol-3-one]: the IC50 on recombinant human VAP-1 was 2.7 nM; in experiment [1], greater than 100000 nM; in experiment [2], 310 nM; in experiment [3], 730 nM.

Consider `NC/C(=C\F)Cn1ncn(Cc2ccc(C#Cc3cccnc3)s2)c1=O` [Example 127, 2-[(2E)-2-(aminomethyl)-3-fluoroprop-2-en-1-yl]-4-[5-(pyridin-3-ylethynyl)thiophen-2-yl]methyl-2,4-dihydro-3H-1,2,4-triazol-3-one hydrochloride], for which the IC50 was 0.8 nM on recombinant human VAP-1, greater than 100000 nM in experiment [1], 150 nM in experiment [2] and 910 nM in experiment [3].

For `NC/C(=C\F)Cn1ncn(Cc2ccc(-c3ccnnc3)s2)c1=O` [Example 175, 2-[(2E)-2-(aminomethyl)-3-fluoroprop-2-en-1-yl]-4-{[5-(pyridazin-4-yl)thiophen-2-yl]methyl}-2,4-dihydro-3H-1,2,4-triazol-3-one], the half-maximal inhibitory concentration (IC50) at recombinant human VAP-1 was 3.6 nM; in experiment [1], greater than 100000 nM; in experiment [2] it was 4400 nM; in experiment [3] it was 670 nM.

For the compound `Cc1c(-c2ccc(Cn3cnn(C/C(=C/F)CN)c3=O)s2)ccc2c1COC(=O)N2` [Example 102, 6-[5-[[1-[(E)-2-(aminomethyl)-3-fluoro-allyl]-5-oxo-1,2,4-triazol-4-yl]methyl]-2-thienyl]-5-methyl-1,4-dihydro-3,1-benzoxazin-2-one], the half-maximal inhibitory concentration (IC50) was 0.2 nM on recombinant human VAP-1, greater than 100000 nM in experiment [1], 480 nM in experiment [2] and 760 nM in experiment [3].

As to `CC1(C)Oc2ccc(-c3ccc(Cn4cnn(C/C(=C/F)CN)c4=O)s3)cc2NC1=O` [Example 98, 6-[5-[[1-[(E)-2-(aminomethyl)-3-fluoro-allyl]-5-oxo-1,2,4-triazol-4-yl]methyl]-2-thienyl]-2,2-dimethyl-4H-1,4-benzoxazin-3-one], the IC50 on recombinant human VAP-1 was 0.4 nM; in experiment [1], greater than 100000 nM; in experiment [2], 530 nM; in experiment [3] it was 200 nM.

For `NC/C(=C\F)Cn1ncn(Cc2ccc(-c3cccc(S(=O)(=O)N4CCCC4)c3)s2)c1=O` [Example 28, 2-[(2E)-2-(aminomethyl)-3-fluoroprop-2-en-1-yl]-4-(5-[3-(pyrrolidin-1-ylsulfonyl)phenyl]thiophen-2-ylmethyl)-2,4-dihydro-3H-1,2,4-triazol-3-one hydrochloride], the concentration for half-maximal inhibition (IC50) is 0.5 nM at recombinant human VAP-1, greater than 100000 nM in experiment [1], 200 nM in experiment [2] and 120 nM in experiment [3].

For `NC/C(=C\F)Cn1ncn(Cc2ccc(/C=C/c3cnc4c(c3)NC(=O)CO4)s2)c1=O` [Example 124, 7-[(E)-2-[5-[[1-[(E)-2-(aminomethyl)-3-fluoro-allyl]-5-oxo-1,2,4-triazol-4-yl]methyl]-2-thienyl]vinyl]-1H-pyrido[2,3-b][1,4]oxazin-2-one hydrochloride], the IC50 on recombinant human VAP-1 is 0.1 nM; in experiment [1] it was greater than 100000 nM; in experiment [2] it was 5100 nM; in experiment [3], 270 nM.

Consider `NC/C(=C\F)Cn1ncn(Cc2ccc(-c3cccc4ncccc34)s2)c1=O` [Example 113, 2-[(2E)-2-(aminomethyl)-3-fluoroprop-2-en-1-yl]-4-[5-(quinolin-5-yl)thiophen-2-yl]methyl-2,4-dihydro-3H-1,2,4-triazol-3-one hydrochloride], for which the IC50 at recombinant human VAP-1 is 0.8 nM; in experiment [1], greater than 100000 nM; in experiment [2], 160 nM; in experiment [3] it was 340 nM.

For the compound `NC/C(=C\F)Cn1ncn(Cc2ccc(-c3cnn(C4CCNCC4)c3)s2)c1=O` [Example 190, 2-[(2E)-2-(aminomethyl)-3-fluoroprop-2-en-1-yl]-4-({5-[1-(piperidin-4-yl)-1H-pyrazol-4-yl]thiophen-2-yl}methyl)-2,4-dihydro-3H-1,2,4-triazol-3-one], the IC50 is 3.8 nM on recombinant human VAP-1, greater than 100000 nM in experiment [1], greater than 100000 nM in experiment [2] and 1800 nM in experiment [3].
